In patent publication US5240695A, “Use of 2-hydroxy-4-methoxybenzophenone-5-sulphonic acid or its salts for protecting the hair against environmental attacking agents, and especially against light and process for protecting the hair using the compound” (L'Oreal, priority 1988, dated 1993):

Columns and labels:
[1] = Suntest exposure (xenon emitter) of permanent-waved natural hair, 15% extension level in the wet state; details: Example 2 styling foam (0.5 g UVINUL MS 40 in 100 g composition before aerosol packaging), no rinse, 180 hours Suntest, vs foam without UVINUL MS 40
Procedure: Permanent-waved natural hair receives an application of this foam and then, without this being followed by a rinse, is subjected to 180 hours' exposure to the Suntest, as described in Example 1.

[2] = Suntest exposure (xenon emitter) of bleached hair, 15% extension level in the wet state; details: 120 hours Suntest; for mean value of the 15% extension level in the wet state: no rinse

SMILES: COc1cc(O)c(C(=O)c2ccccc2)cc1S(=O)(=O)O [UVINUL MS 40, 2-hydroxy-4-methoxybenzophenone-5-sulphonic acid]
- mean value of the 15% extension level in the wet state [1]: significant improvement
- mean values of the 15% extension level in the wet state ([2]; Example 1 shampoo (1 g/100 g UVINUL MS 40), washed five times, vs shampoo base without UVINUL MS 40): substantial improvement
- mean value of the 15% extension level in the wet state ([2]; Example 3 styling gel (0.3 g/100 g UVINUL MS 40), three applications, vs gel without UVINUL MS 40): significant improvement
- mean value of the 15% extension level in the wet state ([2]; Example 4 styling spray (1 g/100 g UVINUL MS 40), one application, vs spray without UVINUL MS 40): improved very appreciably
